Measurements taken from ChEMBL document CHEMBL3621077, “Synthesis of hybrid anticancer agents based on kinase and histone deacetylase inhibitors” (Medchemcomm, 2014).
Activity calls are given as the source filed them. The rule behind the calls is not given here.

Legend:
[1] = molecular target: Vascular endothelial growth factor receptor 1 (Homo sapiens, UniProt P17948); experiment: Inhibition of VEGFR1 (unknown origin)
[2] = molecular target: Vascular endothelial growth factor receptor 2 (Homo sapiens, UniProt P35968); experiment: Inhibition of VEGFR2 (unknown origin)
[3] = molecular target: Platelet-derived growth factor receptor alpha (Homo sapiens, UniProt P16234); experiment: Inhibition of PDGFRa (unknown origin)
[4] = molecular target: Platelet-derived growth factor receptor beta (Homo sapiens, UniProt P09619); experiment: Inhibition of PDGFRb (unknown origin)
[5] = system: MDA-MB-231; experiment: Cytotoxicity against human MDA-MB-231 cells assessed as reversal of cell viability at 200 uM after 72 hrs by MTT assay in presence of SAHA; assay type: functional
[6] = system: MDA-MB-231; experiment: Cytotoxicity against human MDA-MB-231 cells assessed as reversal of cell viability at 10 uM after 72 hrs by MTT assay in presence of SAHA; assay type: functional, cell-based
[7] = molecular target: Histone deacetylase 1 (Homo sapiens, UniProt Q13547); experiment: Inhibition of HDAC1 (unknown origin)
[8] = molecular target: Histone deacetylase 2 (Homo sapiens, UniProt Q92769)
[9] = molecular target: Histone deacetylase 3 (Homo sapiens, UniProt O15379); experiment: Inhibition of HDAC3 (unknown origin)
[10] = molecular target: Histone deacetylase 4 (Homo sapiens, UniProt P56524); experiment: Inhibition of HDAC4 (unknown origin)
[11] = molecular target: Histone deacetylase 5 (Homo sapiens, UniProt Q9UQL6); experiment: Inhibition of HDAC5 (unknown origin)
[12] = molecular target: T1, Protein deacetylase HDAC6 (Homo sapiens, UniProt Q9UBN7); experiment: Inhibition of HDAC6 (unknown origin)
T1 sequence (Q9UBN7 whole entry): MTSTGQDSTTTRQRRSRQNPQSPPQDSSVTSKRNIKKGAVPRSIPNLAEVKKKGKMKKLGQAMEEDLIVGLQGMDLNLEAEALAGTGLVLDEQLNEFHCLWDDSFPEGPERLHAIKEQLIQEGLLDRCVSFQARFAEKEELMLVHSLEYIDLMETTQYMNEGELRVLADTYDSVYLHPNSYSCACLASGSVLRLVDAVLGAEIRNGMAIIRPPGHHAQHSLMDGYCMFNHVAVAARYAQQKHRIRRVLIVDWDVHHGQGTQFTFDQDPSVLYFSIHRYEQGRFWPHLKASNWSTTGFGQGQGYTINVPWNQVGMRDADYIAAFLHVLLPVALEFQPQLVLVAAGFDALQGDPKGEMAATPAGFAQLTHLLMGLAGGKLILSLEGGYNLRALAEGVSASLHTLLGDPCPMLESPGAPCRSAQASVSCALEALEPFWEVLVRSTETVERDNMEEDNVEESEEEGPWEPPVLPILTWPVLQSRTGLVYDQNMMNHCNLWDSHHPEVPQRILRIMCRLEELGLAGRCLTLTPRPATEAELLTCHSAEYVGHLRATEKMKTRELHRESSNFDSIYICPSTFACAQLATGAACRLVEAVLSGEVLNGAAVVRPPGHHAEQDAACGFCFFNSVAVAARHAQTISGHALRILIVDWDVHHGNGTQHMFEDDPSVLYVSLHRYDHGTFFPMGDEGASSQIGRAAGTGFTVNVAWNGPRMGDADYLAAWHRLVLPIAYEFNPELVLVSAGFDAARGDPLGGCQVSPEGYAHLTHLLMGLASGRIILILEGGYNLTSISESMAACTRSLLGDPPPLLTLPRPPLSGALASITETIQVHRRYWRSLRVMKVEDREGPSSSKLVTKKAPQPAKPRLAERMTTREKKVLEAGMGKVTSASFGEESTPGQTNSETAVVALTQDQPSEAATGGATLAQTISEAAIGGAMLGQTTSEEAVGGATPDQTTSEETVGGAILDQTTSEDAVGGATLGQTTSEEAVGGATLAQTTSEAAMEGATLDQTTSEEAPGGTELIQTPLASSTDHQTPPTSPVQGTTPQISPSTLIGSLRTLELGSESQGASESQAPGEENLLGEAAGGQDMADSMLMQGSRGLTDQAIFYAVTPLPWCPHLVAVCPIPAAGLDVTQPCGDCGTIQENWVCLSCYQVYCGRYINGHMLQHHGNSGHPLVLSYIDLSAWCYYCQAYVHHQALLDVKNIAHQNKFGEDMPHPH

[13] = molecular target: T2, Histone deacetylase 7 (Homo sapiens, UniProt Q8WUI4); experiment: Inhibition of HDAC7 (unknown origin)
T2 sequence (Q8WUI4 whole entry): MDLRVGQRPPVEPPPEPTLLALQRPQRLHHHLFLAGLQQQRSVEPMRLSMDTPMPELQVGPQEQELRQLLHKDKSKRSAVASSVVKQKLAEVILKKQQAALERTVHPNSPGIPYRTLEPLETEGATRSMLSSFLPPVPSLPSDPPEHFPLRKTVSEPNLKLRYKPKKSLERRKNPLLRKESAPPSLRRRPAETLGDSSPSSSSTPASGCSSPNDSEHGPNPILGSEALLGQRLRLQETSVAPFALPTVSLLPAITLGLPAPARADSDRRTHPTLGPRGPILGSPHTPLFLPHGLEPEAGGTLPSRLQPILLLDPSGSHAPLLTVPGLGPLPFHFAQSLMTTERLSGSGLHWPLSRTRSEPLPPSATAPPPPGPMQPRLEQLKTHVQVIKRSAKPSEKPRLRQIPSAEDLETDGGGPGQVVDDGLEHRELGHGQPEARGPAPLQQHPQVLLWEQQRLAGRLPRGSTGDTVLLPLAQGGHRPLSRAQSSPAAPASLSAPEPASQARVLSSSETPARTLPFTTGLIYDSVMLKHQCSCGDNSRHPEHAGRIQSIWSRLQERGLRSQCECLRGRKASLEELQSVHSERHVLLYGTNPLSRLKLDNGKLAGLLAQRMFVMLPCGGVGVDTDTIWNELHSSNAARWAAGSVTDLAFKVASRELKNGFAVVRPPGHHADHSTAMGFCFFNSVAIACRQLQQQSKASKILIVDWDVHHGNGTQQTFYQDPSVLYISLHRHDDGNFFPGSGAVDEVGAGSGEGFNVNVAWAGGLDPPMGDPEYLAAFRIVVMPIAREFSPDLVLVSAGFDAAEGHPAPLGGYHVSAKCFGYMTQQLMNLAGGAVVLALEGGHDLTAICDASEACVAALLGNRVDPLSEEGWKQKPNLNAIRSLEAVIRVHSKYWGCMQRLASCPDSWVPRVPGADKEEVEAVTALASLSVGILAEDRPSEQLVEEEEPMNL

[14] = molecular target: T3, Histone deacetylase 8 (Homo sapiens, UniProt Q9BY41); experiment: Inhibition of HDAC8 (unknown origin)
T3 sequence (Q9BY41 whole entry): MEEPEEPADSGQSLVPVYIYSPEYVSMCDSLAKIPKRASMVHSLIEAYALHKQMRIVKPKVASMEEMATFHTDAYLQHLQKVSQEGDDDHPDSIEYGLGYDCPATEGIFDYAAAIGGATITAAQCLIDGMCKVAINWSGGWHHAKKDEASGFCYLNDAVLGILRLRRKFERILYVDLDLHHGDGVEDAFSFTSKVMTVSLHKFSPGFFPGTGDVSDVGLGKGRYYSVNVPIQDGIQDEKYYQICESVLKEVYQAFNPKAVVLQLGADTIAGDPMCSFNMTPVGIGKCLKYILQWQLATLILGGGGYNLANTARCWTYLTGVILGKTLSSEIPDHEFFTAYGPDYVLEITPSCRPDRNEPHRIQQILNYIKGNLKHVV

[15] = molecular target: Histone deacetylase 9 (Homo sapiens, UniProt Q9UKV0); experiment: Inhibition of HDAC9 (unknown origin)
[16] = molecular target: Histone deacetylase; assay type: cell-based, Homo sapiens; conditions: hela
[17] = molecular target: Histone deacetylase (Homo sapiens) (UniProt Q13547+O15379+Q9UBN7+Q92769+Q9UQL6+Q8WUI4+Q9BY41+Q96DB2+P56524+Q9UKV0+Q969S8); experiment: Inhibition of HDAC isolated from human HeLa cells at 1 uM by fluorimetric assay; assay type: cell-free
[18] = species: Xenopus laevis; conditions: at 10 to 100 µM

Histone deacetylase 9, sequence (Q9UKV0 whole entry): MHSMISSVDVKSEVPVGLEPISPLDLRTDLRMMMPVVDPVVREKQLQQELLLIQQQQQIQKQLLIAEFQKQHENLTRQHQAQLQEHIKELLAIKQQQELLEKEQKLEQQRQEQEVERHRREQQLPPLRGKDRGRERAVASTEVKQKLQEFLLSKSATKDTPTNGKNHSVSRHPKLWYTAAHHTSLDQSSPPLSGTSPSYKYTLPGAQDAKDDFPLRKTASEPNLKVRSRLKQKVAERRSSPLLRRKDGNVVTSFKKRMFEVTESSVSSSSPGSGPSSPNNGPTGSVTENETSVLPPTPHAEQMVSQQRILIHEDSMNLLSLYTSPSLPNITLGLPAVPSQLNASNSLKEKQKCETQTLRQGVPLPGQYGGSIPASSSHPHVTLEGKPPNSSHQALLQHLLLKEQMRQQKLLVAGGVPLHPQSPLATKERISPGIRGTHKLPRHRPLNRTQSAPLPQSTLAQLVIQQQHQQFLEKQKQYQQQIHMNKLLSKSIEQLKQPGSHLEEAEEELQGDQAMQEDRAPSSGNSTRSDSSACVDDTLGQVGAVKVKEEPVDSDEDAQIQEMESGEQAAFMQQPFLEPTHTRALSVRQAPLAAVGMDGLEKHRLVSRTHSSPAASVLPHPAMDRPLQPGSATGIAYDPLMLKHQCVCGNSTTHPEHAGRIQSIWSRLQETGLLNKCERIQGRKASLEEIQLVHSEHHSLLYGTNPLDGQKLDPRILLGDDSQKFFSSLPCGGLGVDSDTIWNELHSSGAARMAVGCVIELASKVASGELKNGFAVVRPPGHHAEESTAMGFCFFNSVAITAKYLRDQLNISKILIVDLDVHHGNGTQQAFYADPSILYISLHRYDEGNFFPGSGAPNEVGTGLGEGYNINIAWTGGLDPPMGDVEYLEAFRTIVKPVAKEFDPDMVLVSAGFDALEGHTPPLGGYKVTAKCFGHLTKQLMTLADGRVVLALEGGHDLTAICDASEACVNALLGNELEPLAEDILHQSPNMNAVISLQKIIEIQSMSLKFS
Histone deacetylase 5, sequence (Q9UQL6 whole entry): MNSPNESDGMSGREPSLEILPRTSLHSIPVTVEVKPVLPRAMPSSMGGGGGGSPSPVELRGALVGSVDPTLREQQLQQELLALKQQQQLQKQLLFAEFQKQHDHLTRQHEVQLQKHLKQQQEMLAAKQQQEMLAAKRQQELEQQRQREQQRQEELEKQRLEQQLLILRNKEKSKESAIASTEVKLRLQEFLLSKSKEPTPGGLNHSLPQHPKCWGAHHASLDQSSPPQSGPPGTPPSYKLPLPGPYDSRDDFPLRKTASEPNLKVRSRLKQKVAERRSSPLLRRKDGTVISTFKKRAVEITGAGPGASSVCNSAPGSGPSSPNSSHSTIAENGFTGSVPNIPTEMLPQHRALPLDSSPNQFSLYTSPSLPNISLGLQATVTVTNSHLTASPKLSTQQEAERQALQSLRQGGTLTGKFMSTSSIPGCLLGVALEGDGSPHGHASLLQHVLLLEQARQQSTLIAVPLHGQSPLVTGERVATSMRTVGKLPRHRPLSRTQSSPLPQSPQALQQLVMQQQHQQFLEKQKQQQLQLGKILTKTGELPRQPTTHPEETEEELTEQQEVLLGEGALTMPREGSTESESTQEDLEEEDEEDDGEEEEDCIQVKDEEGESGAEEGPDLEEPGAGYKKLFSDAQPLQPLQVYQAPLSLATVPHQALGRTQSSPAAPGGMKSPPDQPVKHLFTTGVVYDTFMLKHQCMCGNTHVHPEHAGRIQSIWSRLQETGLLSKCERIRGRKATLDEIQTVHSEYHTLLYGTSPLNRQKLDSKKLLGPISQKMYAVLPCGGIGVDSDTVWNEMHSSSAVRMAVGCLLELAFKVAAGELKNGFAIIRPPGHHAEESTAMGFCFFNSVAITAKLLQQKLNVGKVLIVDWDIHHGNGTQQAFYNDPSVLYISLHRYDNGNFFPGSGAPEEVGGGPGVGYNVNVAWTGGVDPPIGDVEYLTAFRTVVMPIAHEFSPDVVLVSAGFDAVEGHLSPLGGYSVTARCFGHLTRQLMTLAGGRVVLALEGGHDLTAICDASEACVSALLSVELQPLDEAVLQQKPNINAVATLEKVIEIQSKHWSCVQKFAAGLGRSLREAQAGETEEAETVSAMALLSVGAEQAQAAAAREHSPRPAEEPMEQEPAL
Platelet-derived growth factor receptor alpha, sequence (P16234 whole entry): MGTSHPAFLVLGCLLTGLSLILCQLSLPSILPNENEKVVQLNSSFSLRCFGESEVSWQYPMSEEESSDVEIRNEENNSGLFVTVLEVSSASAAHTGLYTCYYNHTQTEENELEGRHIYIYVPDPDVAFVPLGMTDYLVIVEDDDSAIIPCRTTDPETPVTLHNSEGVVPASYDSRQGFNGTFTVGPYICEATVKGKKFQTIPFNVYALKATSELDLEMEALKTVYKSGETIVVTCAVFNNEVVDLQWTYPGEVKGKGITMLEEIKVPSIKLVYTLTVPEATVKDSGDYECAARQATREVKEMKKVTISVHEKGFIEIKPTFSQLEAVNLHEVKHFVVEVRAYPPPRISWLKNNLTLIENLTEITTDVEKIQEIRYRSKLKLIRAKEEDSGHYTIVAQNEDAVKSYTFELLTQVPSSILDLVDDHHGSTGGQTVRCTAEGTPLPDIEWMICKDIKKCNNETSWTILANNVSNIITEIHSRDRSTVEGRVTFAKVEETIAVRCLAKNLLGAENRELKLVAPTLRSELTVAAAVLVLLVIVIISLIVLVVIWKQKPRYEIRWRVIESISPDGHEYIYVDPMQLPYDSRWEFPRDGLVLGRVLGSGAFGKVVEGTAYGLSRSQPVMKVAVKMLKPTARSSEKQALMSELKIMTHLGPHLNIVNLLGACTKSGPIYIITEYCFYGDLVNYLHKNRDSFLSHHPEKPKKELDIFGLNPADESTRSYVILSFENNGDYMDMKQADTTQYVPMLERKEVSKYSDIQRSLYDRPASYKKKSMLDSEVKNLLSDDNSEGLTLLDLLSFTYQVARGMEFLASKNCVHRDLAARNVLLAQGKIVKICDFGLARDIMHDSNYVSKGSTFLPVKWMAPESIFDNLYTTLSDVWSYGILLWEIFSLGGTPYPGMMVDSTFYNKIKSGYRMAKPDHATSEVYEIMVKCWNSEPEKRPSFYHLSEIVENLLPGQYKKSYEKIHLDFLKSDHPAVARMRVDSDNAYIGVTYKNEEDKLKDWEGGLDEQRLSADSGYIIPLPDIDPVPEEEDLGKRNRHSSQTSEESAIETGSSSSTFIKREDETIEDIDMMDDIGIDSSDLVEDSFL
Platelet-derived growth factor receptor beta, sequence (P09619 whole entry): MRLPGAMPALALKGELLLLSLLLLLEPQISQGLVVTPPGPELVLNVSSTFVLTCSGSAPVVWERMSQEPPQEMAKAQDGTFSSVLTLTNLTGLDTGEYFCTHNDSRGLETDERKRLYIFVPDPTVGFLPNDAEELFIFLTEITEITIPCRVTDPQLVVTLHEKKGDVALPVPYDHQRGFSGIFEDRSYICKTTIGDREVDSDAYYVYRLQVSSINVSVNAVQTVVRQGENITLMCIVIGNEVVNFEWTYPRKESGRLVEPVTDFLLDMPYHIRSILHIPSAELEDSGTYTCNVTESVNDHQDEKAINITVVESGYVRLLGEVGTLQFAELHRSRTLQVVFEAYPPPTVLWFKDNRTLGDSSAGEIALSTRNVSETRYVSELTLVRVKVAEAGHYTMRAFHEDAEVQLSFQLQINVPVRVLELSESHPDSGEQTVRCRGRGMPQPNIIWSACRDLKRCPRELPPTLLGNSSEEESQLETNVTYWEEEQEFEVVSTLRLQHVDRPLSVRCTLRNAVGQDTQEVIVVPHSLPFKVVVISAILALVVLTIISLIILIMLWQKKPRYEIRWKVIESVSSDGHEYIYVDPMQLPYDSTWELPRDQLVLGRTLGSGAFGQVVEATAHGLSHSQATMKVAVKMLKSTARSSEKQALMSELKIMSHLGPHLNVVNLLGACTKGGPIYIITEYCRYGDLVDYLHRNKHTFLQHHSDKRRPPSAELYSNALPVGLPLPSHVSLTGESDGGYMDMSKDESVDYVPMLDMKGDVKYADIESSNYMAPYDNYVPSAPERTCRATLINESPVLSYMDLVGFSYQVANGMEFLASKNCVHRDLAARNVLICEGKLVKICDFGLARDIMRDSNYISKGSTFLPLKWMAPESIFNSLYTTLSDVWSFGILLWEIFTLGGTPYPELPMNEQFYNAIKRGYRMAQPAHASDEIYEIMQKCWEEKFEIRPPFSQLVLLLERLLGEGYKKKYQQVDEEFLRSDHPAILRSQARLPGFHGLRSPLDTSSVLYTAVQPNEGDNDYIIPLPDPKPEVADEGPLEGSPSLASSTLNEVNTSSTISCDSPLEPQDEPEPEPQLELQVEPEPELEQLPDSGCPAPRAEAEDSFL
Histone deacetylase 2, sequence (Q92769 whole entry): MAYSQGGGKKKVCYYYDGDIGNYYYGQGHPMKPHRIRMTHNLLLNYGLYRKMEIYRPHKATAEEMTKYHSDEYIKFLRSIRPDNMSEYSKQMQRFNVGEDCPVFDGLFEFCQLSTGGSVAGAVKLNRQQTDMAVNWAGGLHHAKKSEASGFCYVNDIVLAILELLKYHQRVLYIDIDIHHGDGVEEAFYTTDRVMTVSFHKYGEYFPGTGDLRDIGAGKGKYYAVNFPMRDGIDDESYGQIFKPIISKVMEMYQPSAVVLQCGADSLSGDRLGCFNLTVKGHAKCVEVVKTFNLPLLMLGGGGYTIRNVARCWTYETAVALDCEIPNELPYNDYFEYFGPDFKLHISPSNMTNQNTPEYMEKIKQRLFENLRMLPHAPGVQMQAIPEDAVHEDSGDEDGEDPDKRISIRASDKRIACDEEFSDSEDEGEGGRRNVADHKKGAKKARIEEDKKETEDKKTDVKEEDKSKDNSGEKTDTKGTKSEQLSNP

Row | IC50 ([2]; read-out: IC50) | IC50 ([4]; read-out: IC50) | IC50 [1] | IC50 [2] | IC50 [3] | IC50 [4] | IC50 [7] | IC50 [8] | IC50 [9] | IC50 [10] | IC50 [11] | IC50 [13] | IC50 [15] | Structure (SMILES) | also measured
1 | 405 nM | 637 nM |  |  |  |  |  |  |  |  |  |  |  | O=C1Nc2ccc(O)cc2/C1=C/c1ccc[nH]1 | IC50 ([1]; read-out: IC50): 116 nM; IC50 ([3]; read-out: IC50): 406 nM; Activity [5]: 70%; Activity [6]: Active
2 |  |  | Not Active | Not Active | Not Active | Not Active | 1260 nM | 3290 nM | 2.42 nM | Not Active | Not Active | Not Active | Not Active | Nc1ccccc1NC(=O)CCCCC(=O)Nc1ccc2c(c1)/C(=C/c1ccc[nH]1)C(=O)N2 | IC50 [12]: Not Active; IC50 [14]: Not Active
3 | 290 nM | 518 nM |  |  | Not Active |  | 9.37 nM | 20.4 nM | 9.77 nM | Not Active | Not Active | Not Active | Not Active | O=C(CCCCC(=O)Nc1ccc2c(c1)/C(=C/c1ccc[nH]1)C(=O)N2)NO | IC50 ([1]; read-out: IC50): 205 nM; IC50 [16]: 935 nM; IC50 ([12]; read-out: IC50): 1.61 nM; IC50 ([14]; read-out: IC50): 312 nM
4 |  |  | Not Active | Not Active |  | Not Active |  |  |  |  |  |  |  | CSCCCNC(=O)c1ccc2c(c1)NC(=O)/C2=C\c1[nH]c(C)cc1C | 
5 | 38 nM | 8 nM | Not Active |  |  |  |  |  |  |  |  |  |  | CSCCCNC(=O)c1ccc2c(c1)/C(=C/c1[nH]c(C)cc1C)C(=O)N2 | 
6 |  |  |  |  |  |  |  |  |  | Not Active | Not Active | Not Active | Not Active | O=C(CCCCCCC(=O)Nc1ccccc1)NO [VORINOSTAT] | 
7 |  |  | Not Active | Not Active | Not Active | Not Active |  |  |  |  |  |  |  | Cc1cc(C)c(/C=C2\C(=O)Nc3ccc(NC(=O)CCCCCCC(=O)NO)cc32)[nH]1 | IC50 [16]: 443 nM; inhibition [17]: > 20%
8 |  |  | Not Active | Not Active | Not Active | Not Active | 373 nM | 2230 nM | 394 nM | Not Active | Not Active | Not Active | Not Active | Nc1ccccc1NC(=O)CCCCCCC(=O)Nc1ccc2c(c1)/C(=C/c1ccc[nH]1)C(=O)N2 | IC50 ([12]; read-out: IC50): 4610 nM; IC50 [14]: Not Active
9 |  |  |  |  |  |  |  |  |  |  |  |  |  | Cc1cc(C)c(/C=C2\C(=O)Nc3ccccc32)[nH]1 | inhibition [18]: Active
